Measurements reported in patent US7045495B2 (Sloan-Kettering Institute for Cancer Research, priority 1996, dated 2006).
pIC50: −log10 of the molar value. Read-outs that look alike come from different tables or passages of the source.

Experiments:
SK-GT-5 cells = experiment: apoptosis by quantitative fluorescent microscopy (QFM), Hoechst-33258 staining; type: cell-based, human; settings: FIG. 4: safingol 50 μM and/or PMA 1 ng/ml for 1 hour, then MMC 5 μg/ml or no drug 24 hours; MMC alone 24 hours
Protocol: (§1) Apoptosis was measured by two different methods: (i) Quantitative fluorescent microscopy (QFM) of nuclear changes induced by apoptosis, as determined by bisbenzimide trihydrochloride (Hoescht-33258) staining of nuclear chromatin (15), and (ii) a terminal deoxynucleotidyl transferase (TdT) assay that labels the 3′-OH ends of DNA fragments produced in apoptotic cells (16). […] MMC was diluted in water. A stock safingol solution was constituted in DMSO and was subsequently diluted at least 1:100 in media for all experiments. […] For QFM determinations, the cells were fixed in 3% paraformaldehyde and incubated at room temperature for 10 minutes. The fixative was removed and the cells were washed with 1×PBS, resuspended in 20 μl 1×PBS containing only 8 μg/ml of bisbenzimide trihydrochloride (Hoechst #33258), and incubated at room temperature for 15 minutes. Aliquots of the cells (10 μl) were placed on glass slides coated with 3-amino-propyl-triethoxysilane, and duplicate samples of 500 cells each were counted and scored for the incidence of apoptotic chromatin condensation using an Olympus BH-2 fluorescence microscope equipped with a BH2-DM2U2UV Dich. Mirror Cube filter (Olympus, Lake Success, N.Y.). For the TdT assays, the ApopTag Kit (Oncor, Gaithersburg, Md.) was used. This method employs a fluoresceinated antidigoxigenin antibody directed against nucleotides of digoxigenin-11-dUTP (d-dUTP) which are catalytically added to the 3-ends fragmented DNA by TdT. Briefly, 1–2×10^6 cells were washed and fixed with 1% paraformaldehyde. The fixed cells were incubated in a reaction mixture containing TdT and d-dUTP for 30 minutes at 37° C. Stop/wash buffer was added, and the cells were resuspended in 100 μl of fluorescinated anti-digoxigenin antibody for 30 minutes at room temperature. The cells were then washed with 0.1% Triton X-100 and counterstained with propidium iodide (PI) solution. Green (d-dUTP labeled DNA strand breaks) and red (PI staining for total DNA content) fluorescence of individual cells were measured on a FACScan flow cytometer (Becton Dickinson, San Jose, Calif.). The resulting bivariate plots enabled the detection of apoptotic events within the cell cycle. The R1 cursor was set using the control specimen to define normal levels of green fluorescence (i.e., basal levels of apoptosis). Cells with fluorescence above the R, cursor were considered apoptotic. The data from 10,000 cells were collected and analyzed using CellFit and LYSYS software (Becton Dickinson).
For the QFM duplicate samples of 500 cells each were counted and scored for the incidence of apoptotic chromatin condensation using an Olympus BH-2 fluorescence microscope.

MKN-74 cells = experiment: apoptosis by QFM, Hoechst-33258 staining; type: cell-based, human; settings: for induction of apoptosis (condensed chromatin, 400 cells): MKN-74, UCN-01 7.5 to 10 μM; for Percent Apoptosis: 24 h continuous (single drug) or concomitant, flavopiridol 300 nM, paclitaxel 50 μM, carboplatin
Protocol: as §1
Apoptosis was again measured by QFM staining.
(§2) Induction of apoptosis was estimated by counting the frequency of condensed nuclear chromatin with Hoechst-33258 stain in duplicate samples of 400 cells.
For these studies apoptosis was measured by quantitative fluorescent microscopy (QFM) determination with bisbenzimide trihydrochloride stain (Hoescht-33258) for condensed nuclear chromatin characteristic of apoptotic cells.
For QFM determinations 500 cells were counted and scored for the incidence of apoptotic chromatin changes under an Olympus BH-2 fluorescence microscope in duplicate samples, ±SD, using a BH2-DM2U2UV Dich. Mirror Cube filter.
To study this further applicants elected to examine five bis-indolylmaleimides with various potencies against PKC. […] The induction of apoptosis was estimated by counting the frequency of condensed nuclear chromatin with Hoechst-33258 stain in duplicate samples of 400 cells.

PKC = settings: cited from earlier work
[1] = tested on: MDA-MB-468 breast cancer cells; experiment: apoptosis by QFM, Hoechst-33258 staining; type: cell-based, human; settings: 24 hours
Protocol: PRELIMINARY STUDIES. […] Apoptosis was measured by quantitative fluorescent microscopy (QFM) of nuclear changes induced by apoptosis, as determined by bisbenzimide trihydrochloride (Hoescht-33258) staining of condensed nuclear chromatin (24). For the QFM duplicate samples of 500 cells each were counted and scored for the incidence of apoptotic chromatin condensation using an Olympus BH-2 fluorescence microscope.
Applicants also tested the PKC inhibitor UCN-01 (27) which is currently in phase I clinical trial at the NCI. In contrast to safingol, which inhibits PKC by binding to its regulatory domain, UCN-01 inhibits PKC at its catalytic domain. Therefore, assessment of the effect of UCN-01 on inducing apoptosis in combination with MMC on MDA-MB-468 was also performed. The QFM method to quantitate apoptosis was again used. The conditions tested were identical to those described above for safingol except UCN-01 (1 μM) was substituted for safingol in all the conditions.
as §2

SK-GT-2 cells = experiment: apoptosis by QFM, Hoechst-33258 staining; type: cell-based, human; settings: 24 hours; for percentage of cells undergoing apoptosis (QFM): MMC 5.0 μg/ml
Protocol: (i) Safingol enhances MMC-induced apoptosis: SK-GT-5 cells, which have a mutated p53 gene (9), were treated with safingol in the presence or absence of MMC for 24 hours. For determination of apoptosis SK-GT-5 cells were treated according to one of several conditions: (i) no drug (control) for 24 hours, (ii) Safingol alone (50 μM) for 24 hours. (This concentration represents the highest non-toxic dose of safingol for the SK-GT-5 cells, as determined by cell proliferation studies, and slightly exceeds the safingol concentration (30 μM) which inhibits PKC enzyme activity by 50% in vitro.), (iii) Mitomycin-C alone (2.5 μg/ml) for 24 hours, (iv) Mitomycin-C alone (5 μg/ml) for 24 hours, (v) the combination of safingol (50 μM) and Mitomycin-C (2.5 μg/ml) for 24 hours, (vi) the combination of safingol (50 μM) and Mitomycin-C (5 μg/ml) for 24 hours. Apoptosis was measured by quantitative fluorescent microscopy (QFM) of nuclear changes induced by apoptosis, as determined by bisbenzimide trihydrochloride (Hoescht-33258) staining of condensed nuclear chromatin (3,5). For the QFM duplicate samples of 500 cells each were counted and scored for the incidence of apoptotic chromatin condensation using an Olympus BH-2 fluorescence microscope.
(ii) UCN-01 enhances MMC-induced apoptosis: SK-GT-2 cells, which have a mutation in p53, were treated with increasing concentrations of UCN-01 in the presence or absence of a fixed dose of MMC for 24 hours.
Both UCN-01 and Flavo inhibit PKC. These drugs are cytotoxic to tumor cells and have been reported to induce apoptosis. […] In order to test this hypothesis we elected to treat gastric cancer cells, MKN-74 and SK-GT-2, as well as breast cancer cells, MDA-MB-468, with UCN-01 (7.5 to 10 μM) or Flavo (300 nM) in the presence or absence of MMC (5 μg/ml) or Taxol (50 μM) for 24 hours. Induction of apoptosis was estimated by counting the frequency of condensed nuclear chromatin with Hoechst-33258 stain in duplicate samples of 400 cells.

mammary carcinomas = experiment: tumor size in mice bearing mammary carcinomas; type: in vivo; settings: for increase in tumor size by day #6: bryostatin 60 μg/kg followed in 12 hours by Mitomycin-C 3 μg/kg or Taxol 50 μg/kg, preliminary
MKN-74 = experiment: cell viability, trypan blue dye exclusion; type: cell-based, human; settings: 24 hours, single drug or concomitant; bryostatin 1 μM, Mitomycin-C 1 μg/ml, Taxol 50 μM, Cisplatin 50 μM
Description: Recently our laboratory has studied the effects of combining bryostatin with chemotherapy both in vitro and in vivo against solid tumors. For our in vitro studies, we have been using the human gastric cancer cell line MKN-74. Cytotoxicity has been examined both by cell viability assays using trypan blue dye exclusion assays and by the induction of apoptosis using quantitative fluorescent microscopy.

metastatic breast cancer = settings: cited from earlier work
esophageal carcinoma = settings: cited from earlier work

## CCCCCCCCCCCCCC(=O)O[C@@H]1[C@@H](C)[C@@]2(O)[C@@H](C=C(CO)C[C@]3(O)C(=O)C(C)=C[C@@H]23)[C@@H]2C(C)(C)[C@]12OC(C)=O [PMA, 3-phorbol 12-myristate 13-acetate]
SK-GT-5 cells
  percentage of cells undergoing apoptosis (QFM): essentially no effect on inducing apoptosis

## CN(C)C[C@H]1CCn2c(c(C3=C(c4cn(C)c5ccccc45)C(=O)NC3=O)c3ccccc32)C1 [RO 32-0432]
MKN-74 cells; 24 hours, RO 32-0432 1 μM, MMC
  percentage of cells undergoing apoptosis (QFM): essentially no effect on inducing apoptosis
MKN-74 cells; Ro 2 μM, MMC 1 μg/ml
  percent induction of apoptosis, 6hrs: 0.3%
  percent induction of apoptosis, 12hrs: 1.5%
  percent induction of apoptosis, 24hrs: 1.2%
  percent induction of apoptosis, 48hrs: 5.0%
  percent induction of apoptosis, 72hrs: 13%
PKC; Ro32-0432, read-out: IC50, PKC enzyme activity
  pIC50: […]

## CN[C@@H]1C[C@H]2O[C@@](C)([C@@H]1OC)n1c3ccccc3c3c4c(c5c6ccccc6n2c5c31)C(=O)N[C@H]4O [UCN-01, 7-OH-staurosporine]
MKN-74 cells; 24 hours, Taxol 50 μM
  induction of apoptosis (condensed chromatin, 400 cells): 10% ± 2
[1]; FIG. 10, UCN-01 1 μM, MMC 5.0 μg/ml
  induction of apoptosis (QFM): 20%±4
[1]; MDA-MB-468, UCN-01 7.5 to 10 μM, MMC 5 μg/ml
  induction of apoptosis (condensed chromatin, 400 cells): 20% ± 1
SK-GT-2 cells; UCN-01 0.1 μM
  percentage of cells undergoing apoptosis (QFM): 1%±0%
SK-GT-2 cells; UCN-01 1 μM
  percentage of cells undergoing apoptosis (QFM): 1%±0
SK-GT-2 cells; UCN-01 10 μM
  percentage of cells undergoing apoptosis (QFM): 21%±1%
SK-GT-2 cells; UCN-01 7.5 to 10 μM, MMC 5 μg/ml
  induction of apoptosis (condensed chromatin, 400 cells): 18% ± 4
PKC
  concentration range that inhibits PKC activity: nanomolar concentrations

## CCC/C=C/C=C/C(=O)O[C@H]1/C(=C/C(=O)OC)C[C@H]2C[C@H]([C@@H](C)O)OC(=O)C[C@H](O)C[C@@H]3C[C@H](OC(C)=O)C(C)(C)[C@](O)(C[C@@H]4C/C(=C/C(=O)OC)C[C@H](/C=C/C(C)(C)[C@]1(O)O2)O4)O3 [bryostatin]
Mammary carcinomas
  increase in tumor size by day #6: 80%
Mammary carcinomas; first noted 12 to 24 hours after bryostatin
  tumor energy and pH (NMR): dose-dependent decrease in tumor energy and pH
MKN-74
  % of Cells Alive: 85%

## N.N.O=C([O-])C1(C(=O)[O-])CCC1.[Pt+2] [carboplatin]
MKN-74 cells; MMC 1 μg/ml
  Percent Apoptosis: 1%±1%
MKN-74 cells; MMC 1 μg/ml, listed as Carboplatin
  Percent Apoptosis: 1% ± 1%

## CC(=O)O[C@H]1C(=O)[C@@]2(C)[C@H]([C@H](OC(=O)c3ccccc3)[C@]3(O)C[C@H](OC(=O)[C@H](O)[C@@H](NC(=O)c4ccccc4)c4ccccc4)C(C)=C1C3(C)C)[C@]1(OC(C)=O)CO[C@@H]1C[C@@H]2O [paclitaxel, Tax-11-en-9-one, 5 beta, 20-epoxy-1, 2 alpha, 4, 7 beta, 10 beta, 13 alpha-hexahydroxy-1,4, 10-diacetate, 2 benzoate 13-(alpha-phenylhippurate)]
MKN-74 cells; MMC 1 μg/ml
  Percent Apoptosis: 5.5%±1
MKN-74 cells; MMC 1 μg/ml, listed as Paclitaxel
  Percent Apoptosis: 6% ± 1%
MKN-74 cells; 24 hours, FLAVO 300 nM, Taxol 50 μM, MMC 1 μg/ml, single drugs or in combination
  % APOPTOSIS: 9%
MKN-74 cells; 24 hours, FLAVO 300 nM, Taxol 50 μM, MMC 1 μg/ml, single drugs or together
  percent induction of apoptosis, Concomitant: 9% ± 1%
MKN-74 cells; 24 hours, Taxol 50 μM
  induction of apoptosis (condensed chromatin, 400 cells): 2% ± 1
Mammary carcinomas
  increase in tumor size by day #6: 22%
MKN-74
  % of Cells Alive: 93%
Metastatic breast cancer; 96 hour infusion, taxane resistant population
  response rate: 286
Metastatic breast cancer; first chemotherapy, 24 hour infusion with or without G-CSF
  response rates: 56–62%
Metastatic breast cancer; first line, 250 mg/m^2 over 3 hour infusion
  response rate: 32%
Esophageal carcinoma; 250 mg/m^2 by 24 hour infusion every 21 days with G-CSF, 51 patients
  major responses: 32%
Esophageal carcinoma; 250 mg/m^2 by 24 hour infusion, 51 patients
  complete response: 2%
Esophageal carcinoma; in vivo
  median survival: 13 months
